Values joined by “and” are separate entries in the source; they are usually repeats but may differ in a detail not shown here. Equal values may be shown once.
Experiments:
[1] = target: T1, pseudo-kinase domain (JH2, amino-acids 536-812) of human V617F mutant JAK2 (Homo sapiens, UniProt O60674, F794H/V617F/W659A/W777A); assay: JAK2 LanthaScreen JH2-V617F Binding Assay; conditions: 50 nM tracer, read-out: JH2BINDING—V617F IC50
T1 construct: pseudo-kinase domain (JH2, amino-acids 536-812 with 3 surface mutations W659A, W777A, F794H); His (C); purchased BPS Bioscience 79498; host or cells: baculovirus expression system
T1 sequence (O60674 536-812 V617F/W659A/W777A/F794H): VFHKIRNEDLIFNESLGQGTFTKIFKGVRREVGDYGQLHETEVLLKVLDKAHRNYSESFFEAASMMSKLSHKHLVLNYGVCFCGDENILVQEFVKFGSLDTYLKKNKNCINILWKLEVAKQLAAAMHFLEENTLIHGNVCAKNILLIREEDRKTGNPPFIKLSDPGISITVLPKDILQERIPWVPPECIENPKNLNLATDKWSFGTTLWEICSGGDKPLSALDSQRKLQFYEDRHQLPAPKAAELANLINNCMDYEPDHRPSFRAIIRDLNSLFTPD
Description: Example C. JAK2 LanthaScreen JH2-V617F Binding Assay
(§1) JAK2 JH2-V617F binding assay utilizes pseudo-kinase domain (JH2, amino-acids 536-812 with 3 surface mutations W659A, W777A, F794H) of human V617F mutant JAK2 expressed as C-terminal His-Avi-tagged, biotinylated protein in a baculovirus expression system (BPS Bioscience, Catalog #79498). The assay was conducted in black 384-well polystyrene plates in a final reaction volume of 20 μL. JAK2 JH2-V617F (0.26 nM) was incubated with compounds (100 nL serially diluted in DMSO) in the presence of 50 nM Fluorescent JAK2-JH2 Tracer (MedChem Express Catalog #HY-102055) and 0.25 nM Streptavidin-Tb cryptate (Cisbio Part #610SATLB) in assay buffer (50 mM Tris, pH=7.5, 10 mM MgCl2, 0.01% Brij-35, 0.1% BSA, 1 mM EGTA, 5% Glycerol and 5 mM DTT). Non-specific binding was accessed in the presence of 2 mM ATP. After incubation for 1 hour at 25° C., LanthaScreen signals were read on a PHERAstar FS plate reader (BMG LABTECH). Data was analyzed with IDBS XLfit and GraphPad Prism 5.0 software using a four parameter dose response curve to determine IC50 for each compound.

[2] = target: T2, catalytic domain (JH1, amino acids 808-1132) of human JAK2 (Homo sapiens, UniProt O60674); assay: JAK2 HTRF Enzyme Activity Assay; format: biochemical; conditions: ATP 30 μM; read-out: ENZ 30UMATP IC50
T2 construct: catalytic domain (JH1, amino acids 808-1132) of human JAK2; His (N); purchased BPS Bioscience 40450; host or cells: baculovirus expression system
T2 sequence (O60674 808-1132): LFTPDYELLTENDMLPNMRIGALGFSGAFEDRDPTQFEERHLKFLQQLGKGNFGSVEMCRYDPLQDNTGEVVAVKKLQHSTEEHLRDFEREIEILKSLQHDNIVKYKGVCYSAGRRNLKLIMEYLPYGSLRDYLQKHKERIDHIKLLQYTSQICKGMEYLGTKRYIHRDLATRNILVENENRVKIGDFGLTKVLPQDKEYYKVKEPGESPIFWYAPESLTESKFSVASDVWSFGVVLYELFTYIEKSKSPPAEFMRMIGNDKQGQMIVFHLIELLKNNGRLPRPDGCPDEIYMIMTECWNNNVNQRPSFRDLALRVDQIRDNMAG
Description: Example D. JAK2 HTRF Enzyme Activity Assay
JAK2 enzyme activity assays utilize catalytic domain (JH1, amino acids 808-1132) of human JAK2 expressed as N-terminal His-tagged protein in a baculovirus expression system (BPS Bioscience, Catalog #40450). The assays was conducted in black 384-well polystyrene plates in a final reaction volume of 20 μL. JAK2 (0.015 nM) was incubated with compounds (100 nL serially diluted in DMSO) in the presence of ATP (30 μM or 1 mM) and 500 nM Biotin-labeled EQEDEPEGDYFEWLE (SEQ ID NO.: 1) peptide (BioSource International, custom synthesis) in assay buffer (50 mM Tris, pH=7.5, 10 mM MgCl2, 0.01% Brij-35, 0.1% BSA, 1 mM EGTA, 5% Glycerol and 5 mM DTT) for 60 minutes at 25° C. The reactions were stopped by the addition of 10 μL of detection buffer (50 mM Tris, pH 7.8, 0.5 mg/mL BSA, 150 mM NaCl), supplemented with EDTA, LANCE Eu-W1024 anti-phosphotyrosine (PY20), (PerkinElmer, Catalog #AD0067) and Streptavidin SureLight APC (PerkinElmer Catalog #CR130-100), for a final concentration of 15 mM, 1.5 nM and 75 nM, respectively. HTRF signals were read after 30 minutes incubation at room temperature on a PHERAstar FS plate reader (BMG LABTECH). Data was analyzed with IDBS XLfit and GraphPad Prism 5.0 software using a four parameter dose response curve to determine IC50 for each compound. The compounds of the disclosure were tested in one or more of the assays described in Examples A-D, and the resulting data are shown in Table A.

[3] = target: T3, pseudo-kinase domain (JH2, amino-acids 536-812) of human Wild Type JAK2 (Homo sapiens, UniProt O60674, F794H/W659A/W777A); assay: JAK2 LanthaScreen JH2-WT Binding Assay; conditions: 50 nM tracer, read-out: JH2BIND_WT IC50
T3 construct: pseudo-kinase domain (JH2, amino-acids 536-812 with 3 surface mutations W659A, W777A, F794H); His (C); purchased BPS Bioscience 79463; host or cells: baculovirus expression system
T3 sequence (O60674 536-812 W659A/W777A/F794H): as the sequence (O60674 536-812 V617F/W659A/W777A/F794H) above, with F82V counted along it
Description: Example B. JAK2 LanthaScreen JH2-WT Binding Assay
as §1, with “JH2-WT” for “JH2-V617F”, “Wild Type” for “V617F mutant”, “#79463).” for “#79498).”, “JH2-WT (0.145” for “JH2-V617F (0.26”

[4] = target: T4, catalytic domain (JH1, amino acids 826-1132) of human JAK2 (Homo sapiens, UniProt O60674); assay: JAK2 LanthaScreen JH1 binding assay; conditions: JAK2 JH1, 50 nM tracer; read-out: JH1BIND IC50
T4 construct: catalytic domain (JH1, amino acids 826-1132) of human JAK2; FLAG (N); purchased Carna Biosciences 08-445-20N; host or cells: baculovirus expression system
T4 sequence (O60674 826-1132): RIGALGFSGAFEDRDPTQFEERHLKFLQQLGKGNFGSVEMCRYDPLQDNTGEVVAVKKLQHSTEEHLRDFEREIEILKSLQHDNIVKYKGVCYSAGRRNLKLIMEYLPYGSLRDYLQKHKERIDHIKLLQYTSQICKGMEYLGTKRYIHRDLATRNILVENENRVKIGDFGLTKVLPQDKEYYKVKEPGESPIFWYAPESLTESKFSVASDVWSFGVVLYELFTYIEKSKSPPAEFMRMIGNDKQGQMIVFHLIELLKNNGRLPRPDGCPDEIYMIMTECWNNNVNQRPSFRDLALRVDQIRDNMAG
Description: Example A. JAK2 LanthaScreen […] Binding Assay
JAK2 JH1 binding assay utilizes catalytic domain (JH1, amino acids 826-1132) of human JAK2 expressed as N-terminal FLAG-tagged, biotinylated protein in a baculovirus expression system (Carna Biosciences, Product #08-445-20N). The assay was conducted in black 384-well polystyrene plates in a final reaction volume of 20 μL. JAK2 JH1 (1.5 nM) was incubated with compounds (100 nL serially diluted in DMSO) in the presence of 50 nM fluorescent JAK2-JH1 tracer and 0.5 nM Streptavidin-Tb cryptate (Cisbio Part #610SATLB) in assay buffer (50 mM Tris, pH=7.5, 10 mM MgCl2, 0.01% Brij-35, 0.1% BSA, 1 mM EGTA, […] and 5 mM DTT). Non-specific binding was accessed in the presence of 2 mM ATP. After incubation for 2 hours at 25° C., LanthaScreen signals were read on a PHERAstar FS plate reader (BMG LABTECH).
Data was analyzed with IDBS XLfit and GraphPad Prism 5.0 software using a four parameter dose response curve to determine IC50 for each compound.

| Structure (SMILES) | IC50 [1] [nM] | IC50 [2] | IC50 [3] [nM] | IC50 [4] |
| --- | --- | --- | --- | --- |
| [2H]C([2H])([2H])n1c(=O)n2c3c4c(c(-c5cn(C)nc5OC)[nH]c4ncc31)-c1ccc(cc1)OCC/C=C/C[C@]1(NC(=O)C3CC3)CC[C@@H]2CC1 [Example 2, N-((3^1s,3^4s,E)-2^7-(3-Methoxy-1-methyl-1H-pyrazol-4-yl)-2^3-(methyl-d3)-2^2-oxo-2^1,2^2,2^3,2^6-tetrahydro-9-oxa-2(8,1)-imidazo[4,5-d]pyrrolo[2,3-b]pyridina-1(1,4)-benzena-3(1,4)-cyclohexanacyclononaphan-5-en-3^4-yl)cyclopropanecarboxamide] | ≤ 10 | > 1000 nM | ≤ 10 | > 1000 nM |
| [2H]C([2H])([2H])n1c(=O)n2c3c4c(c(-c5cnn(C)c5)[nH]c4ncc31)-c1ccc(cc1)OCC/C=C/C[C@]1(NC(=O)[C@H]3C[C@H]3F)CC[C@@H]2CC1 [Example 10, (1R,2R)-2-fluoro-N-((3^1S,3^4s,E)-2^3-(methyl-d3)-2^7-(1-methyl-1H-pyrazol-4-yl)-2^2-oxo-2^1,2^2,2^3,2^6-tetrahydro-9-oxa-2(8,1)-imidazo[4,5-d]pyrrolo[2,3-b]pyridina-1(1,4)-benzena-3(1,4)-cyclohexanacyclononaphan-5-en-3^4-yl)cyclopropane-1-carboxamide] | ≤ 10 | 500 to 1000 nM | ≤ 10 | 500 to 1000 nM |
| [2H]C([2H])([2H])n1c(=O)n2c3c4c(c(-c5cnn(CCOC)c5)[nH]c4ncc31)-c1ccc(cc1)OCC/C=C/C[C@]1(NC(=O)[C@H]3C[C@H]3F)CC[C@@H]2CC1 [Example 8, (1R,2R)-2-Fluoro-N-((3^1S,3^4s,E)-2^7-(1-(2-methoxyethyl)-1H-pyrazol-4-yl)-2^3-(methyl-d3)-2^2-oxo-2^1,2^2,2^3,2^6-tetrahydro-9-oxa-2(8,1)-imidazo[4,5-d]pyrrolo[2,3-b]pyridina-1(1,4)-benzena-3(1,4)-cyclohexanacyclononaphan-5-en-3^4-yl)cyclopropane-1-carboxamide] | ≤ 10 | 500 to 1000 nM | ≤ 10 | 500 to 1000 nM |
| [2H]C([2H])([2H])n1c(=O)n2c3c4c(c(-c5cn(C)nc5OC)[nH]c4ncc31)-c1ccc(cc1)OC/C=C/C[C@]1(NC(=O)C3CC3)CC[C@@H]2CC1 [Example 1, N-((3^1s,3^4s,E)-2^7-(3-Methoxy-1-methyl-1H-pyrazol-4-yl)-2^3-(methyl-d3)-2^2-oxo-2^1,2^2,2^3,2^6-tetrahydro-8-oxa-2(8,1)-imidazo[4,5-d]pyrrolo[2,3-b]pyridina-1(1,4)-benzena-3(1,4)-cyclohexanacyclooctaphan-5-en-3^4-yl)cyclopropanecarboxamide] | ≤ 10 | > 1000 nM | ≤ 10 | > 1000 nM |
| [2H]C([2H])([2H])n1c(=O)n2c3c4c(c(-c5cn(C)nc5OC)[nH]c4ncc31)-c1ccc(cc1)CNCC[C@]1(NC(=O)C3CC3)CC[C@@H]2CC1 [Example 7, N-((3^1s,3^4s)-2^7-(3-Methoxy-1-methyl-1H-pyrazol-4-yl)-2^3-(methyl-d)-2^2-oxo-2^1,2^2,2^3,2^6-tetrahydro-6-aza-2(8,1)-imidazo[4,5-d]pyrrolo[2,3-b]pyridina-1(1,4)-benzena-3(1,4)-cyclohexanacycloheptaphane-3^4-yl)cyclopropanecarboxamide] | 10 to 100 | > 1000 nM | ≤ 10 | > 1000 nM |
| [2H]C([2H])([2H])n1c(=O)n2c3c4c(c(-c5cn(CC6CC6)nc5F)[nH]c4ncc31)-c1ccc(cc1)OCC/C=C/C[C@]1(NC(=O)[C@H]3C[C@H]3F)CC[C@@H]2CC1 [Example 14, (1R,2R)-N-((3^1S,3^4s,E)-2^7-(1-(cyclopropylmethyl)-3-fluoro-1H-pyrazol-4-yl)-2^3-(methyl-d3)-2^2-oxo-2^1,2^2,2^3,2^6-tetrahydro-9-oxa-2(8,1)-imidazo[4,5-d]pyrrolo[2,3-b]pyridina-1(1,4)-benzena-3(1,4)-cyclohexanacyclononaphan-5-en-3^4-yl)-2-fluorocyclopropane-1-carboxamide] | ≤ 10 | 500 to 1000 nM and > 1000 nM | ≤ 10 | 500 to 1000 nM and > 1000 nM |
| [2H]C([2H])([2H])n1c(=O)n2c3c4c(c(-c5cnn(CC(F)F)c5)[nH]c4ncc31)-c1ccc(cc1)OCC/C=C/C[C@]1(NC(=O)[C@H]3C[C@H]3F)CC[C@@H]2CC1 [Example 11, (1R,2R)-N-((3^1S,3^4s,E)-2^7-(1-(2,2-difluoroethyl)-1H-pyrazol-4-yl)-2^3-(methyl-d3)-2^2-oxo-2^1,2^2,2^3,2^6-tetrahydro-9-oxa-2(8,1)-imidazo[4,5-d]pyrrolo[2,3-b]pyridina-1(1,4)-benzena-3(1,4)-cyclohexanacyclononaphan-5-en-3^4-yl)-2-fluorocyclopropane-1-carboxamide] | ≤ 10 | > 1000 nM | ≤ 10 | 500 to 1000 nM |

— patent US20240376124A1, “Macrocyclic Kinase Inhibitors” (Incyte Corporation, priority 2023, published 2024)
